We go through two molecules from patent publication US20260248834A1, “PHARMACEUTICAL COMPOSITION AND METHOD FOR TREATMENT OF HUMAN IMMUNODEFICIENCY VIRUS INFECTIONS” (Brii Biosciences, Inc., priority 2022, published 2026).

Where only a bound is given, the exact number is not on record here.

Data set [1] is described as follows: Intracellular half-life of EFdA triphosphate in human. The conditions noted are these: cells (intracellular; cell type not given), read-out: intracellular half-life of EFdA triphosphate (EFdA-TP) (converted). Type of data set: in vivo.
A short description of data set [2]: Phase I study: safety and tolerability (treatment-emergent adverse events). Type of data set: in vivo, human. The method, then: Following oral absorption, 1-A is rapidly converted to ISL, which is metabolized intracellularly to the active metabolite, ISL triphosphate (ISL-TP). The objectives of the study were to assess the safety, tolerability, and PK profiles of 1-A and ISL in plasma; and ISL diphosphate (ISL-DP) and ISL-TP in human PBMCs.
(§1) Methods. Healthy adult subjects were enrolled in five single ascending dose and two multiple ascending dose cohorts. 1-A was administered to single dose cohorts in amounts of 10 mg, 25 mg, 50 mg, 100 mg or 200 mg. 1-A was administered to multiple dose cohorts in amounts of 10 mg per week for 3 weeks or 25 mg per week for 3 weeks. 1-A was orally administered in the fasted state using an oral solution formulation. Safety-related assessments included physical examinations, ECGs, vital signs, AEs, and standard clinical laboratory tests.

Data set [3] can be described thus: Phase I study: pharmacokinetics of 1-A and islatravir in plasma. Type of data set: in vivo, human.
Source text: (§2) This example describes results from a Phase I, randomized, double-blind, placebo-controlled study for adenosine derivative having Formula 1-A (“1-A”), which is a prodrug of islatravir (ISL). Following oral absorption, 1-A is rapidly converted to ISL, which is metabolized intracellularly to the active metabolite, ISL triphosphate (ISL-TP). The objectives of the study were to assess the safety, tolerability, and PK profiles of 1-A and ISL in plasma; and ISL diphosphate (ISL-DP) and ISL-TP in human PBMCs.
as §1

A short description of data set [4]: Phase I study: pharmacokinetics of ISL-TP in PBMCs. Type of data set: in vivo, human. The conditions noted are these: for ISL-TP in PBMCs AUClast / ISL-TP in PBMCs Cmax: 3 weekly oral doses of 25 mg 1-A, healthy adults, mean.
Source text: as §2, §1

Data set [5] in a line: Stability in Human Plasma (conversion to EFdA). Type of data set: in vitro ADME. The source says: (§3) The adenosine derivative having the Formula 1-A was produced according to the process described in PCT publication WO2021021717, published on Feb. 4, 2021, herein incorporated by reference. [table]
Data set [6] in a line: Stability in Human Liver S9 (conversion to EFdA). Type of data set: in vitro ADME.
Source text: as §3

Where [7] appears, read: single or multiple oral doses of 1-A, 10 mg to 200 mg.

Regarding `C#C[C@]1(COP(=O)(O)OP(=O)(O)OP(=O)(O)O)O[C@@H](n2cnc3c(N)nc(F)nc32)C[C@@H]1O` [EFdA-TP, 4′-ethynyl-2-fluoro-2′-deoxyadenosine triphosphate], the half-life in data set [1] is roughly 4.5 days.
On to `C#C[C@]1(COC(=O)OCc2oc(=O)oc2C)O[C@@H](n2cnc3c(N)nc(F)nc32)C[C@@H]1O` [Formula 1-A, ((2R,3S,5R)-5-(6-amino-2-fluoro-9H-purin-9-yl)-2-ethynyl-3-hydroxytetrahydro-furan-2-yl)methyl ((5-methyl-2-oxo-1,3-dioxol-4-yl)methyl) carbonate], for which, in data set [2] (10 mg QW × 3 oral (N = 3)), the “Number (%) of Subjects with Any Death” value was found to be 0; the “Number (%) of Subjects with Any TEAE” value was 2 (66.7%); the “Number (%) of Subjects with Any TEAE Grade 1” value is 2 (66.7%); the “Number (%) of Subjects with Any TEAE Grade 2, 3, 4, or 5” value is 0. For the same molecule, in data set [2] (10 mg QW × 3 oral (N = 3)), the “Number (%) of Subjects with Any TEAE Leading to Premature Discontinuation of Study Drug” value is listed as 0; the “Number (%) of Subjects with Any TEAE Related to Study Drug” value is reported as 2 (66.7%); the “Number (%) of Subjects with Any TEAE Related to Study Drug Grade 1” value is recorded as 2 (66.7%); the “Number (%) of Subjects with Any TEAE Related to Study Drug Grade 2, 3, 4, or 5” value came out at 0. In data set [2] (10 mg QW × 3 oral (N = 3)), the “Number (%) of Subjects with Any Treatment-emergent Serious AE” value is listed as 0. For the same molecule, in data set [2] (25 mg QW × 3 oral (N = 6)), the “Number (%) of Subjects with Any Death” value amounted to 0; the “Number (%) of Subjects with Any TEAE” value was 2 (33.3%); the “Number (%) of Subjects with Any TEAE Grade 1” value is 2 (33.3%); the “Number (%) of Subjects with Any TEAE Grade 2, 3, 4, or 5” value stood at 0. In data set [2] (25 mg QW × 3 oral (N = 6)), the “Number (%) of Subjects with Any TEAE Leading to Premature Discontinuation of Study Drug” value is listed as 0; the “Number (%) of Subjects with Any TEAE Related to Study Drug” value was 2 (33.3%); the “Number (%) of Subjects with Any TEAE Related to Study Drug Grade 1” value is reported as 2 (33.3%); the “Number (%) of Subjects with Any TEAE Related to Study Drug Grade 2, 3, 4, or 5” value is 0. Besides, in data set [2] (25 mg QW × 3 oral (N = 6)), the “Number (%) of Subjects with Any Treatment-emergent Serious AE” value was 0. Moreover, the tolerability result in data set [2] (single doses up to 200 mg and repeat doses up to 25 mg, healthy adults) is recorded as “generally well tolerated”. Besides, in data set [3] (after single and multiple oral administrations of 1-A), the “PK profiles of ISL in plasma and ISL-TP in PBMC cells” value is reported as “linear pharmacokinetics”. Further, in data set [3] (single or multiple oral administrations of 1-A up to 200 mg, healthy adults), the “systemic exposure to 1-A (plasma, LLOQ)” value is less than 1.0 ng/mL. Moreover, in data set [3] (setting [7]), the “EFdA accumulation in plasma” value is “No meaningful EFdA accumulation” and the “ISL plasma PK profiles” value was “Dose-dependent”. Moreover, in data set [4] (Day 1), the “ISL-TP in PBMCs AUClast” value was 617 h*pmol/10^6 cells and the “ISL-TP in PBMCs Cmax” value stood at 5.70 pmol/10^6 cells. In data set [4] (Day 15), the “ISL-TP in PBMCs AUClast” value is listed as 2210 h*pmol/10^6 cells and the “ISL-TP in PBMCs Cmax” value turned out to be 15.4 pmol/10^6 cells. The “ISL-TP accumulation in PBMCs” value in data set [4] (after 3 weekly doses of 25 mg 1-A) is recorded as “significant ISL-TP accumulations”. For the same molecule, in data set [4] (oral 1-A, dose-dependent manner), the “intracellular formation of ISL-TP in PBMCs” value is “Efficient intracellular formation”. This molecule also yielded a half-life in data set [5] (human plasma) of less than 50 min. Moreover, the “conversion to the target drug” value in data set [5] (human plasma assay) was “converted to the target drug efficiently”. For the same molecule, the “Stability in Human Plasma Formation of EFdA at 60 min” value in data set [5] (human plasma, 60 min) was “Yes”. In data set [6] (human liver S9), this molecule yielded a half-life of less than 50 min. For the same molecule, the “Stability in Human Liver S9 Formation of EFdA at 60 min” value in data set [6] (human liver S9, 60 min) is on record as “Yes”. Besides, in data set [6] (human liver S9 assay), the “conversion to the target drug” value is on record as “converted to the target drug efficiently”.
